# Experimental data as given in patent US20160263073A1, “MONOACYLGLYCEROLS FOR USE IN THE TREATMENT OF MALABSORPTION HAVING A MECHANICAL BASIS” (NESTEC S.A., priority 2013, published 2016).
# Columns and labels:
# [1] = lipid maldigestion or malabsorption rat model (XENICAL-induced): EPA level in red blood cell lipids; format: in vivo; conditions: rats; for level of EPA incorporated in red blood cells: day 7, with XENICAL (ORLISTAT), FIG. 2
# Protocol: The concept was tested in a lipid maldigestion or malabsorption rat model. The maldigestion or malabsorption condition was obtained using XENICAL® (ORLISTAT), a pancreatic and gastric lipases inhibitor (tetrahydrolipstatin; see FIG. 7). Rats were fed during 21 days with long-chain polyunsaturated fatty acid (LC-PUFA) supplements containing mainly eicosapentaenoic (EPA) acid. Fish oil was used as a source of triacylglycerols, and different EPA glycerides were evaluated. XENICAL® (ORLISTAT) was given at a level sufficient to decrease lipid absorption by 40%. A group receiving fish oil without XENICAL® (ORLISTAT) was used as a positive control. At different time intervals (D3, D7, […]), the fatty acid profiles of red blood cell and plasma lipids were determined. At the end of the experiment, the fatty acid profiles of different tissues were determined. The main objective was to follow the level of EPA in red blood cell and plasma lipids. The main comparison evaluated was the difference in EPA level between the group receiving EPA-containing sn-1(3) MAG in combination with XENICAL® (ORLISTAT) and the positive control group (fish oil+XENICAL® (ORLISTAT)). […] This comparison corroborates the validity of the model.
# [2] = clinical study: sn-1(3) MAG versus fish oil (TAG) in delivering EPA under lipid maldigestion induced by XENICAL; format: in vivo, human
# Protocol: This clinical study compared the efficacy of sn-1(3) MAG and fish oil (TAG) in delivering EPA in humans under lipid maldigestion conditions induced by XENICAL® (ORLISTAT). The comparison was tested in volunteers having a BMI of 37-40 kg/m^2 and treated with XENICAL® (ORLISTAT) to induce lipid maldigestion or not treated with XENICAL® (ORLISTAT). The primary objective was to assess accretion of EPA in erythrocytes over 21 days when consumed as fish oil (TAG) or sn-1(3) MAG. The secondary objectives were to assess accretion of EPA in plasma over 21 days and also to assess the pharmacokinetics of EPA after an acute dose either in the form of sn-1(3) MAG or TAG (AUC in chylomicrons over 10 hours postprandial).
SMILES,"EPA incorporation in red blood cells ([1]; day 7, fish oil with XENICAL compared with fish oil without XENICAL)","chronic effect: accretion of EPA in erythrocytes after 21 days ([2]; humans, with XENICAL, in comparison to fish oil and XENICAL, p=0.0001, FIG. 5)","chronic effect: accretion of EPA in plasma after 21 days ([2]; humans, with XENICAL, relative to fish oil and XENICAL, p=0.0003, FIG. 6)","carrier for EPA ([2]; obese subjects treated with XENICAL, compared with fish oil (TAG))",incorporation of LC-PUFAs in tissue ([1]; conditions of lipid maldigestion or malabsorption),"level of EPA incorporated in red blood cells ([1]; compared with fish oil in combination with XENICAL, all P values lower than 0.05)",level of EPA incorporated in red blood cells ([1]; compared with the fish oil group without XENICAL)
"CCCCCCCCCCC[C@@H](C[C@@H]1OC(=O)[C@H]1CCCCCC)OC(=O)[C@H](CC(C)C)NC=O [XENICAL® (ORLISTAT), tetrahydrolipstatin, reference compound]",decreases EPA incorporation in red blood cells,–,–,–,–,–,–
"CC/C=C\C/C=C\C/C=C\C/C=C\C/C=C\CCCC(=O)OCC(O)CO (stereo not shown) [sn-1(3) MAG, sn-1(3)-monoeicosapentaenoylglycerol]",–,statistically significant,statistically significant,better carrier for EPA than fish oil (TAG),improved,statistically higher,even higher than the fish oil group
